Assay results from the supplement of paper PMC10307832.

Tests used:
Experiment in all cases: relative viability (nuclei count vs DMSO), 5 days (fraction); higher = more cells survive
Linsitinib + Palbociclib = compound: C[C@]1(O)C[C@@H](c2nc(-c3ccc4ccc(-c5ccccc5)nc4c3)c3c(N)nccn32)C1 [Linsitinib] + CC(=O)c1c(C)c2cnc(Nc3ccc(N4CCNCC4)cn3)nc2n(C2CCCC2)c1=O [Palbociclib] (partner 0.5 µM)
Summary of the method: (§1)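 Relative viability divides the nuclei count in treated wells by that in vehicle wells. Lung cancer cell lines were seeded in 1536-well plates, dosed by pin tool the next day, and fixed and stained after 5 days in one step with final 0.05% Triton X-100, 1% formaldehyde and 1 ug/ml Hoechst. Dosing was a single drug or a fixed anchor-drug dose plus five library-drug doses (not always all listed) in √10 steps, and values are medians of duplicate plates imaged at 4×.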

Ispinesib + Foretinib = compound: Cc1ccc(C(=O)N(CCCN)[C@@H](c2nc3cc(Cl)ccc3c(=O)n2Cc2ccccc2)C(C)C)cc1 [Ispinesib] + COc1cc2c(Oc3ccc(NC(=O)C4(C(=O)Nc5ccc(F)cc5)CC4)cc3F)ccnc2cc1OCCCN1CCOCC1 [Foretinib] (partner 0.25 µM)
Summary of the method: as §1

Ispinesib + Decitabine = compound: Cc1ccc(C(=O)N(CCCN)[C@@H](c2nc3cc(Cl)ccc3c(=O)n2Cc2ccccc2)C(C)C)cc1 [Ispinesib] + Nc1ncn([C@H]2C[C@H](O)[C@@H](CO)O2)c(=O)n1 [Decitabine] (partner 2 µM)
Summary of the method: as §1

Ispinesib + Luminespib = compound: Cc1ccc(C(=O)N(CCCN)[C@@H](c2nc3cc(Cl)ccc3c(=O)n2Cc2ccccc2)C(C)C)cc1 [Ispinesib] + CCNC(=O)c1noc(-c2cc(C(C)C)c(O)cc2O)c1-c1ccc(CN2CCOCC2)cc1 [Luminespib] (partner 0.01 µM)
Summary of the method: as §1

Cell Line: HCC-366
- relative viability (Linsitinib + Palbociclib; first compound 0.01 µM): 0.441
- relative viability (Linsitinib + Palbociclib; first compound 0.03162 µM): 0.394
- relative viability (Linsitinib + Palbociclib; first compound 0.1 µM): 0.359
- relative viability (Linsitinib + Palbociclib; first compound 0.3162 µM): 0.303
- relative viability (Linsitinib + Palbociclib; first compound 1 µM): 0.328
- relative viability (Ispinesib + Foretinib; first compound 0.001 µM): 0.895
- relative viability (Ispinesib + Foretinib; first compound 0.003162 µM): 0.959
- relative viability (Ispinesib + Foretinib; first compound 0.01 µM): 0.994
- relative viability (Ispinesib + Foretinib; first compound 0.03162 µM): 0.913
- relative viability (Ispinesib + Foretinib; first compound 0.1 µM): 0.0534
- relative viability (Ispinesib + Decitabine; first compound 0.001 µM): 0.377
- relative viability (Ispinesib + Decitabine; first compound 0.003162 µM): 0.426
- relative viability (Ispinesib + Decitabine; first compound 0.01 µM): 0.396
- relative viability (Ispinesib + Decitabine; first compound 0.03162 µM): 0.399
- relative viability (Ispinesib + Decitabine; first compound 0.1 µM): 0.0716

Cell Line: HCC-827
- relative viability (Linsitinib + Palbociclib; first compound 0.01 µM): 0.408
- relative viability (Linsitinib + Palbociclib; first compound 0.03162 µM): 0.572
- relative viability (Linsitinib + Palbociclib; first compound 0.1 µM): 0.468
- relative viability (Linsitinib + Palbociclib; first compound 1 µM): 0.529
- relative viability (Ispinesib + Foretinib; first compound 0.001 µM): 1.04
- relative viability (Ispinesib + Foretinib; first compound 0.003162 µM): 1.02
- relative viability (Ispinesib + Foretinib; first compound 0.01 µM): 1.05
- relative viability (Ispinesib + Foretinib; first compound 0.03162 µM): 0.936
- relative viability (Ispinesib + Foretinib; first compound 0.1 µM): 0.684
- relative viability (Ispinesib + Luminespib; first compound 0.001 µM): 0.69
- relative viability (Ispinesib + Luminespib; first compound 0.003162 µM): 0.536
- relative viability (Ispinesib + Luminespib; first compound 0.01 µM): 0.876
- relative viability (Ispinesib + Luminespib; first compound 0.03162 µM): 0.482
- relative viability (Ispinesib + Luminespib; first compound 0.1 µM): 0.529
- relative viability (Ispinesib + Decitabine; first compound 0.001 µM): 0.303
- relative viability (Ispinesib + Decitabine; first compound 0.003162 µM): 0.373
- relative viability (Ispinesib + Decitabine; first compound 0.01 µM): 0.32
- relative viability (Ispinesib + Decitabine; first compound 0.03162 µM): 0.294
- relative viability (Ispinesib + Decitabine; first compound 0.1 µM): 0.234

Cell Line: HOP-62
- relative viability (Linsitinib + Palbociclib; first compound 0.01 µM): 0.435
- relative viability (Linsitinib + Palbociclib; first compound 0.03162 µM): 0.424
- relative viability (Linsitinib + Palbociclib; first compound 0.1 µM): 0.49
- relative viability (Linsitinib + Palbociclib; first compound 1 µM): 0.45
- relative viability (Ispinesib + Foretinib; first compound 0.001 µM): 1.11
- relative viability (Ispinesib + Foretinib; first compound 0.003162 µM): 1.32
- relative viability (Ispinesib + Foretinib; first compound 0.01 µM): 1.35
- relative viability (Ispinesib + Foretinib; first compound 0.03162 µM): 1.11
- relative viability (Ispinesib + Foretinib; first compound 0.1 µM): 0.601
- relative viability (Ispinesib + Luminespib; first compound 0.001 µM): 0.899
- relative viability (Ispinesib + Luminespib; first compound 0.003162 µM): 1.02
- relative viability (Ispinesib + Luminespib; first compound 0.01 µM): 0.93
- relative viability (Ispinesib + Luminespib; first compound 0.03162 µM): 0.794
- relative viability (Ispinesib + Luminespib; first compound 0.1 µM): 0.814
- relative viability (Ispinesib + Decitabine; first compound 0.001 µM): 0.22
- relative viability (Ispinesib + Decitabine; first compound 0.003162 µM): 0.191
- relative viability (Ispinesib + Decitabine; first compound 0.01 µM): 0.226
- relative viability (Ispinesib + Decitabine; first compound 0.03162 µM): 0.224
- relative viability (Ispinesib + Decitabine; first compound 0.1 µM): 0.23

Cell Line: IA-LM
- relative viability (Ispinesib + Foretinib; first compound 0.001 µM): 1.21
- relative viability (Ispinesib + Foretinib; first compound 0.003162 µM): 1.51
- relative viability (Ispinesib + Foretinib; first compound 0.01 µM): 1.45
- relative viability (Ispinesib + Foretinib; first compound 0.03162 µM): 1.06
- relative viability (Ispinesib + Foretinib; first compound 0.1 µM): 0.132

Cell Line: LC-2-ad
- relative viability (Linsitinib + Palbociclib; first compound 0.01 µM): 0.412
- relative viability (Linsitinib + Palbociclib; first compound 0.03162 µM): 0.392
- relative viability (Linsitinib + Palbociclib; first compound 0.1 µM): 0.483
- relative viability (Linsitinib + Palbociclib; first compound 0.3162 µM): 0.433
- relative viability (Linsitinib + Palbociclib; first compound 1 µM): 0.423
- relative viability (Ispinesib + Foretinib; first compound 0.001 µM): 0.892
- relative viability (Ispinesib + Foretinib; first compound 0.003162 µM): 0.863
- relative viability (Ispinesib + Foretinib; first compound 0.01 µM): 1.09
- relative viability (Ispinesib + Foretinib; first compound 0.03162 µM): 0.63
- relative viability (Ispinesib + Foretinib; first compound 0.1 µM): 0.361
- relative viability (Ispinesib + Luminespib; first compound 0.001 µM): 1.08
- relative viability (Ispinesib + Luminespib; first compound 0.003162 µM): 1.3
- relative viability (Ispinesib + Luminespib; first compound 0.01 µM): 1.05
- relative viability (Ispinesib + Luminespib; first compound 0.03162 µM): 0.915
- relative viability (Ispinesib + Luminespib; first compound 0.1 µM): 0.396
- relative viability (Ispinesib + Decitabine; first compound 0.001 µM): 0.847
- relative viability (Ispinesib + Decitabine; first compound 0.003162 µM): 0.787
- relative viability (Ispinesib + Decitabine; first compound 0.01 µM): 0.872
- relative viability (Ispinesib + Decitabine; first compound 0.03162 µM): 0.815
- relative viability (Ispinesib + Decitabine; first compound 0.1 µM): 0.54

Cell Line: LCLC-97TM1
- relative viability (Linsitinib + Palbociclib; first compound 0.01 µM): 0.223
- relative viability (Linsitinib + Palbociclib; first compound 0.03162 µM): 0.205
- relative viability (Linsitinib + Palbociclib; first compound 0.1 µM): 0.191
- relative viability (Linsitinib + Palbociclib; first compound 0.3162 µM): 0.195
- relative viability (Linsitinib + Palbociclib; first compound 1 µM): 0.212
- relative viability (Ispinesib + Foretinib; first compound 0.001 µM): 0.928
- relative viability (Ispinesib + Foretinib; first compound 0.003162 µM): 0.948
- relative viability (Ispinesib + Foretinib; first compound 0.01 µM): 0.933
- relative viability (Ispinesib + Foretinib; first compound 0.03162 µM): 0.856
- relative viability (Ispinesib + Foretinib; first compound 0.1 µM): 0.56
- relative viability (Ispinesib + Luminespib; first compound 0.001 µM): 0.781
- relative viability (Ispinesib + Luminespib; first compound 0.003162 µM): 0.765
- relative viability (Ispinesib + Luminespib; first compound 0.01 µM): 0.886
- relative viability (Ispinesib + Luminespib; first compound 0.03162 µM): 0.807
- relative viability (Ispinesib + Luminespib; first compound 0.1 µM): 0.487
- relative viability (Ispinesib + Decitabine; first compound 0.001 µM): 0.248
- relative viability (Ispinesib + Decitabine; first compound 0.003162 µM): 0.24
- relative viability (Ispinesib + Decitabine; first compound 0.01 µM): 0.303
- relative viability (Ispinesib + Decitabine; first compound 0.03162 µM): 0.235
- relative viability (Ispinesib + Decitabine; first compound 0.1 µM): 0.19

Cell Line: LCLC-103H
- relative viability (Linsitinib + Palbociclib; first compound 0.01 µM): 0.435
- relative viability (Linsitinib + Palbociclib; first compound 0.03162 µM): 0.414
- relative viability (Linsitinib + Palbociclib; first compound 0.1 µM): 0.427
- relative viability (Linsitinib + Palbociclib; first compound 0.3162 µM): 0.367
- relative viability (Linsitinib + Palbociclib; first compound 1 µM): 0.486
- relative viability (Ispinesib + Foretinib; first compound 0.001 µM): 0.869
- relative viability (Ispinesib + Foretinib; first compound 0.003162 µM): 1.03
- relative viability (Ispinesib + Foretinib; first compound 0.01 µM): 0.95
- relative viability (Ispinesib + Foretinib; first compound 0.03162 µM): 0.665
- relative viability (Ispinesib + Foretinib; first compound 0.1 µM): 0.693
- relative viability (Ispinesib + Luminespib; first compound 0.001 µM): 0.95
- relative viability (Ispinesib + Luminespib; first compound 0.003162 µM): 1.08
- relative viability (Ispinesib + Luminespib; first compound 0.01 µM): 1.08
- relative viability (Ispinesib + Luminespib; first compound 0.03162 µM): 0.752
- relative viability (Ispinesib + Luminespib; first compound 0.1 µM): 0.785
- relative viability (Ispinesib + Decitabine; first compound 0.001 µM): 0.757
- relative viability (Ispinesib + Decitabine; first compound 0.003162 µM): 0.741
- relative viability (Ispinesib + Decitabine; first compound 0.01 µM): 0.739
- relative viability (Ispinesib + Decitabine; first compound 0.03162 µM): 0.68
- relative viability (Ispinesib + Decitabine; first compound 0.1 µM): 0.6

Cell Line: LK-2
- relative viability (Linsitinib + Palbociclib; first compound 0.01 µM): 0.968
- relative viability (Linsitinib + Palbociclib; first compound 0.03162 µM): 0.58
- relative viability (Linsitinib + Palbociclib; first compound 0.1 µM): 0.615
- relative viability (Linsitinib + Palbociclib; first compound 0.3162 µM): 0.371
- relative viability (Linsitinib + Palbociclib; first compound 1 µM): 0.554
- relative viability (Ispinesib + Foretinib; first compound 0.001 µM): 1.25
- relative viability (Ispinesib + Foretinib; first compound 0.003162 µM): 1.21
- relative viability (Ispinesib + Foretinib; first compound 0.01 µM): 1.43
- relative viability (Ispinesib + Foretinib; first compound 0.03162 µM): 1.2
- relative viability (Ispinesib + Foretinib; first compound 0.1 µM): 0.617
- relative viability (Ispinesib + Luminespib; first compound 0.001 µM): 0.186
- relative viability (Ispinesib + Luminespib; first compound 0.003162 µM): 0.174
- relative viability (Ispinesib + Luminespib; first compound 0.01 µM): 0.226
- relative viability (Ispinesib + Luminespib; first compound 0.03162 µM): 0.224
- relative viability (Ispinesib + Luminespib; first compound 0.1 µM): 0.202
- relative viability (Ispinesib + Decitabine; first compound 0.001 µM): 0.253
- relative viability (Ispinesib + Decitabine; first compound 0.003162 µM): 0.419
- relative viability (Ispinesib + Decitabine; first compound 0.01 µM): 0.36
- relative viability (Ispinesib + Decitabine; first compound 0.03162 µM): 0.216
- relative viability (Ispinesib + Decitabine; first compound 0.1 µM): 0.153

Cell Line: LOU-NH91
- relative viability (Linsitinib + Palbociclib; first compound 0.01 µM): 0.513
- relative viability (Linsitinib + Palbociclib; first compound 0.03162 µM): 0.539
- relative viability (Linsitinib + Palbociclib; first compound 0.1 µM): 0.484
- relative viability (Linsitinib + Palbociclib; first compound 0.3162 µM): 0.529
- relative viability (Linsitinib + Palbociclib; first compound 1 µM): 0.549
- relative viability (Ispinesib + Foretinib; first compound 0.001 µM): 0.917
- relative viability (Ispinesib + Foretinib; first compound 0.003162 µM): 0.879
- relative viability (Ispinesib + Foretinib; first compound 0.01 µM): 0.957
- relative viability (Ispinesib + Foretinib; first compound 0.03162 µM): 0.829
- relative viability (Ispinesib + Foretinib; first compound 0.1 µM): 0.472
- relative viability (Ispinesib + Luminespib; first compound 0.001 µM): 0.332
- relative viability (Ispinesib + Luminespib; first compound 0.003162 µM): 0.311
- relative viability (Ispinesib + Luminespib; first compound 0.01 µM): 0.394
- relative viability (Ispinesib + Luminespib; first compound 0.03162 µM): 0.25
- relative viability (Ispinesib + Luminespib; first compound 0.1 µM): 0.297
- relative viability (Ispinesib + Decitabine; first compound 0.001 µM): 0.795
- relative viability (Ispinesib + Decitabine; first compound 0.003162 µM): 0.852
- relative viability (Ispinesib + Decitabine; first compound 0.01 µM): 0.858
- relative viability (Ispinesib + Decitabine; first compound 0.03162 µM): 0.786
- relative viability (Ispinesib + Decitabine; first compound 0.1 µM): 0.342
